# What was measured:
# Type in all cases: in vivo
# [1] = system: Beta vulgaris ssp. vulgaris; test: Test Example 4: effect on crop by application to foliage (diluvial soil, plastic box); conditions: for f (Beta vulgaris ssp. vulgaris) effect on crop: application to foliage, application herbicide amount 320 g/ha
# Method in brief: (§1)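 Read-out is a 0–5 visual grade of herbicidal ratio (5: ≥90%, almost withered; 0: ≤5%) taken three weeks after treatment. Compound was applied as a diluted emulsion to stem and leaf parts of 14-day greenhouse-grown plants (25° C. to 30° C.) at rates expressed as g/ha.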
# Triticum aestivum = test: as above; conditions: for e (Triticum aestivum) effect on crop: application to foliage, application herbicide amount 320 g/ha
# Method in brief: as §1
# Glycine max = test: as above; conditions: for c (Glycine max) effect on crop: application to foliage, application herbicide amount 320 g/ha
# Method in brief: as §1
# Zea mays = test: as above; conditions: for b (Zea mays) effect on crop: application to foliage, application herbicide amount 320 g/ha
# Method in brief: as §1
# [2] = system: directly sowed Oryza sativa; test: as above; conditions: for d (directly sowed Oryza sativa) effect on crop: application to foliage, application herbicide amount 320 g/ha
# Method in brief: as §1
# Brassica campestris L. = test: as above; conditions: for g (Brassica campestris L.) effect on crop: application to foliage, application herbicide amount 320 g/ha
# Method in brief: as §1
# Galium spurium = test: Test Example 4: herbicidal effect by application to foliage (diluvial soil, plastic box); conditions: for Q (Galium spurium) herbicidal effect: application to foliage, application herbicide amount 320 g/ha
# Method in brief: as §1
# Avena fatua = test: as above; conditions: for I (Avena fatua) herbicidal effect: application to foliage, application herbicide amount 320 g/ha
# Method in brief: as §1
# Digitaria ciliaris = test: as above; conditions: for F (Digitaria ciliaris) herbicidal effect: application to foliage, application herbicide amount 320 g/ha
# Method in brief: as §1
# Abutilon theophrasti = test: as above; conditions: for M (Abutilon theophrasti) herbicidal effect: application to foliage, application herbicide amount 320 g/ha
# Method in brief: as §1
# Veronica persica = test: as above; conditions: for R (Veronica persica) herbicidal effect: application to foliage, application herbicide amount 320 g/ha
# Method in brief: as §1
# [3] = system: Echinochloa crus-galli var. crus-galli; test: as above; conditions: for H (Echinochloa crus-galli var. crus-galli) herbicidal effect: application to foliage, application herbicide amount 320 g/ha
# Method in brief: as §1
# Chenopodium album = test: as above; conditions: for O (Chenopodium album) herbicidal effect: application to foliage, application herbicide amount 320 g/ha
# Method in brief: as §1
# Lolium multiflorum Lam. = test: as above; conditions: for K (Lolium multiflorum Lam.) herbicidal effect: application to foliage, application herbicide amount 320 g/ha
# Method in brief: as §1
# Alopecurus myosuroides = test: as above; conditions: for J (Alopecurus myosuroides) herbicidal effect: application to foliage, application herbicide amount 320 g/ha
# Method in brief: as §1
# Setaria viridis = test: as above; conditions: for G (Setaria viridis) herbicidal effect: application to foliage, application herbicide amount 320 g/ha
# Method in brief: as §1
# Apera spica-venti. = test: as above; conditions: for L (Apera spica-venti.) herbicidal effect: application to foliage, application herbicide amount 320 g/ha
# Method in brief: as §1
# Monochoria vaginalis = test: Test Example 2: herbicidal activity, application during weed generation in submerged conditions; conditions: Eighteenth Table; application herbicide amount 320 g/ha
# Method in brief: (§2)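 Paddy-type pot test: flooded soil, 4 cm depth, greenhouse 25–30 °C. Emulsion formulation diluted in water, applied to water surface at 1–2 leaf stage; rate expressed as g/ha. Read-out at 3 wk, 0–5 score.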
# Scirpus juncoides = test: as above; conditions: Eighteenth Table; application herbicide amount 320 g/ha
# Method in brief: as §2
# [4] = system: Echinochloa oryzacola Vasing.; test: as above; conditions: Eighteenth Table; application herbicide amount 320 g/ha
# Method in brief: as §2
# [5] = Application herbicide amount 320 g/ha, effect on crop
# [6] = Application herbicide amount 320 g/ha
Structure (SMILES),f (Beta vulgaris ssp. vulgaris) effect on crop [1],e (Triticum aestivum) effect on crop (Triticum aestivum),c (Glycine max) effect on crop (Glycine max),b (Zea mays) effect on crop (Zea mays),d (directly sowed Oryza sativa) effect on crop [2],g (Brassica campestris L.) effect on crop (Brassica campestris L.),Q (Galium spurium) herbicidal effect (Galium spurium),I (Avena fatua) herbicidal effect (Avena fatua),F (Digitaria ciliaris) herbicidal effect (Digitaria ciliaris),M (Abutilon theophrasti) herbicidal effect (Abutilon theophrasti),R (Veronica persica) herbicidal effect (Veronica persica),H (Echinochloa crus-galli var. crus-galli) herbicidal effect [3],O (Chenopodium album) herbicidal effect (Chenopodium album),K (Lolium multiflorum Lam.) herbicidal effect (Lolium multiflorum Lam.),J (Alopecurus myosuroides) herbicidal effect (Alopecurus myosuroides),G (Setaria viridis) herbicidal effect (Setaria viridis),L (Apera spica-venti.) herbicidal effect (Apera spica-venti.),C (Monochoria vaginalis) herbicidal ratio grade (Monochoria vaginalis),B (Scirpus juncoides) herbicidal ratio grade (Scirpus juncoides),A (Echinochloa oryzicola Vasing.) herbicidal ratio grade [4],further results
CCOCc1nnc2c(C(=O)Nc3nnc(C)o3)ccc(C(F)(F)F)n12 [1-027],5 (Herbicidal ratio of 90% or more (almost completely withered)),2 (Herbicidal ratio of 20% or more and less than 40%),1 (Herbicidal ratio of 5% or more and less than 20%),0 (Herbicidal ratio of 5% or less (almost no effect)),5 (Herbicidal ratio of 90% or more (almost completely withered)),4 (Herbicidal ratio of 70% or more and less than 90%),3 (Herbicidal ratio of 40% or more and less than 70%),2 (Herbicidal ratio of 20% or more and less than 40%),5 (Herbicidal ratio of 90% or more (almost completely withered)),5 (Herbicidal ratio of 90% or more (almost completely withered)),5 (Herbicidal ratio of 90% or more (almost completely withered)),5 (Herbicidal ratio of 90% or more (almost completely withered)),5 (Herbicidal ratio of 90% or more (almost completely withered)),1 (Herbicidal ratio of 5% or more and less than 20%),2 (Herbicidal ratio of 20% or more and less than 40%),4 (Herbicidal ratio of 70% or more and less than 90%),3 (Herbicidal ratio of 40% or more and less than 70%),3 (Herbicidal ratio of 40% or more and less than 70%),3 (Herbicidal ratio of 40% or more and less than 70%),4 (Herbicidal ratio of 70% or more and less than 90%),–
Cc1nnc(NC(=O)c2ccc(C(F)(F)F)n3c(N4CCOCC4)nnc23)o1 [1-096],–,–,–,–,–,–,–,–,–,–,–,–,–,–,–,–,–,4 (Herbicidal ratio of 70% or more and less than 90%),3 (Herbicidal ratio of 40% or more and less than 70%),4 (Herbicidal ratio of 70% or more and less than 90%),"f [1, 5]: 5 (Herbicidal ratio of 90% or more (almost completely withered)); e (Triticum aestivum; [5]): 1 (Herbicidal ratio of 5% or more and less than 20%); c (Glycine max; [5]): 4 (Herbicidal ratio of 70% or more and less than 90%); b (Zea mays; [5]): 4 (Herbicidal ratio of 70% or more and less than 90%); d [2, 5]: 4 (Herbicidal ratio of 70% or more and less than 90%); g (Brassica campestris L.; [5]): 5 (Herbicidal ratio of 90% or more (almost completely withered)); Q (Galium spurium; [6]): 4 (Herbicidal ratio of 70% or more and less than 90%); I (Avena fatua; [6]): 2 (Herbicidal ratio of 20% or more and less than 40%); F (Digitaria ciliaris; [6]): 5 (Herbicidal ratio of 90% or more (almost completely withered)); M (Abutilon theophrasti; [6]): 4 (Herbicidal ratio of 70% or more and less than 90%); R (Veronica persica; [6]): 5 (Herbicidal ratio of 90% or more (almost completely withered)); H [3, 6]: 5 (Herbicidal ratio of 90% or more (almost completely withered)); O (Chenopodium album; [6]): 5 (Herbicidal ratio of 90% or more (almost completely withered)); K (Lolium multiflorum Lam.; [6]): 2 (Herbicidal ratio of 20% or more and less than 40%); J (Alopecurus myosuroides; [6]): 1 (Herbicidal ratio of 5% or more and less than 20%); G (Setaria viridis; [6]): 5 (Herbicidal ratio of 90% or more (almost completely withered)); L (Apera spica-venti.; [6]): 3 (Herbicidal ratio of 40% or more and less than 70%)"
CC(C)c1nnc2c(C(=O)Nc3nnco3)ccc(C(F)(F)F)n12 [1-050],5 (Herbicidal ratio of 90% or more (almost completely withered)),3 (Herbicidal ratio of 40% or more and less than 70%),3 (Herbicidal ratio of 40% or more and less than 70%),1 (Herbicidal ratio of 5% or more and less than 20%),4 (Herbicidal ratio of 70% or more and less than 90%),5 (Herbicidal ratio of 90% or more (almost completely withered)),2 (Herbicidal ratio of 20% or more and less than 40%),3 (Herbicidal ratio of 40% or more and less than 70%),5 (Herbicidal ratio of 90% or more (almost completely withered)),5 (Herbicidal ratio of 90% or more (almost completely withered)),5 (Herbicidal ratio of 90% or more (almost completely withered)),5 (Herbicidal ratio of 90% or more (almost completely withered)),5 (Herbicidal ratio of 90% or more (almost completely withered)),3 (Herbicidal ratio of 40% or more and less than 70%),2 (Herbicidal ratio of 20% or more and less than 40%),4 (Herbicidal ratio of 70% or more and less than 90%),3 (Herbicidal ratio of 40% or more and less than 70%),3 (Herbicidal ratio of 40% or more and less than 70%),4 (Herbicidal ratio of 70% or more and less than 90%),5 (Herbicidal ratio of 90% or more (almost completely withered)),–
Cc1ccc(-c2nnc3c(C(=O)Nc4nnc(C)o4)ccc(C(F)(F)F)n23)cc1 [1-043],5 (Herbicidal ratio of 90% or more (almost completely withered)),0 (Herbicidal ratio of 5% or less (almost no effect)),2 (Herbicidal ratio of 20% or more and less than 40%),4 (Herbicidal ratio of 70% or more and less than 90%),2 (Herbicidal ratio of 20% or more and less than 40%),3 (Herbicidal ratio of 40% or more and less than 70%),3 (Herbicidal ratio of 40% or more and less than 70%),2 (Herbicidal ratio of 20% or more and less than 40%),4 (Herbicidal ratio of 70% or more and less than 90%),5 (Herbicidal ratio of 90% or more (almost completely withered)),4 (Herbicidal ratio of 70% or more and less than 90%),5 (Herbicidal ratio of 90% or more (almost completely withered)),5 (Herbicidal ratio of 90% or more (almost completely withered)),1 (Herbicidal ratio of 5% or more and less than 20%),1 (Herbicidal ratio of 5% or more and less than 20%),3 (Herbicidal ratio of 40% or more and less than 70%),1 (Herbicidal ratio of 5% or more and less than 20%),3 (Herbicidal ratio of 40% or more and less than 70%),3 (Herbicidal ratio of 40% or more and less than 70%),3 (Herbicidal ratio of 40% or more and less than 70%),–
